Laboratory results published in patent US8785614B2, “Aberrantly methylated genes in pancreatic cancer” (The Johns Hopkins University, priority 2003, dated 2014).
Where two headings read alike, the source gives them in different places.

Assays:
[1] = tested on: Panc1 pancreatic cancer cell line; test: Oligonucleotide microarray gene expression after TSA (1 μM, 24 h) vs mock; assay type: cell-based, human
Source text: These include a large panel of novel targets for silencing by histone deacetylation including several known tumor suppressor genes or cell cycle-regulatory genes (ING1, p57KIP2, CHES1, CHFR, GADD45B, and others).

[2] = tested on: Hs766T pancreatic cancer cell line
Experimental: Mock-treated cells were cultured with the equivalent volume of PBS alone.
Total RNA was isolated from cultured cells using TRIZOL reagent (invitrogen, Carlsbad, Calif.) and purified using RNeasy Mini Kit (Qiagen, Valencia, Calif.). First- and second-stranded cDNA was synthesized from 10 μg of total RNA using 17-dT) primer (Genset Corp., La Jolla, Calif.) and Superscript Choice system (Invitrogen). Labeled cRNA was synthesized from the purified cDNA by in vitro transcription reaction using the BioArray High Yield RNA Transcript Labeling Kit (Enzo Diagnostics, Inc., Farmingdale, N.Y.) at 37° C. for 6 h. The cRNA was fragmented at 94° C. for 35 min. in a fragmentation buffer [40 mM Tris-acetate @ pH 8.1, 100 mM potassium acestate, and 30 mM magnesium acetate]. The fragmented cRNA was then hybridized to the Human Genome U133A chips (Affymetrix, Santa Clara, Calif.) with 18462 unique gene/EST transcripts at 45° C. for 16 h. The washing and staining procedure was performed in the Affymetrix Fluidics Station according to the manufacturer's instructions. The probes were then scanned using a laser scanner, and signal intensity for each transcript (background-subtracted and adjusted for noise) was calculated using Microarray Suite Software 5.0 (Affymetrix).
Fold change analysis of signal intensities obtained from oligonucleotide microarrays between the two treatment groups was performed using Data Mining software (Afrymetrix).
The global changes in gene expression proxies induced by 5Aza-dC in four pancreatic cancer cell lines (AsPCl, Hs766T, MiaPaCa2, and Panel) were determined using the Afrymetrix U133 oligonucleotide microarrays with 18462 probes sets (transcripts) covering over 13000 full-length sequences of known genes.

CC(/C=C/C(=O)NO)=C\[C@@H](C)C(=O)c1ccc(N(C)C)cc1 [TSA, trichostatin A]
Fold-change after TSA treatment ([1]; ADM, Panc1): 3.22 fold
Fold-change after TSA treatment ([1]; ANGPT1, Panc1): −1.13 fold
Fold-change after TSA treatment ([1]; AREG, Panc1): 4.2 fold
Fold-change after TSA treatment ([1]; ATF3, Panc1): 2.74 fold
Fold-change after TSA treatment ([1]; BIK, Panc1): 5.02 fold
Fold-change after TSA treatment ([1]; CACNA1G, Panc1): 10.14 fold
Fold-change after TSA treatment ([1]; CAPN5, Panc1): 5.41 fold
Fold-change after TSA treatment ([1]; CDH8, Panc1): 6.85 fold
Fold-change after TSA treatment ([1]; CDKN1C, Panc1): 6.26 fold
Fold-change after TSA treatment ([1]; CGR11, Panc1): 11.66 fold
Fold-change after TSA treatment ([1]; CHES1, Panc1): 9.31 fold
Fold-change after TSA treatment ([1]; CHFR, Panc1): −1.33 fold
Fold-change after TSA treatment ([1]; CLDN15, Panc1): 8.69 fold
Fold-change after TSA treatment ([1]; EDR1, Panc1): −2.06 fold
Fold-change after TSA treatment ([1]; EGR4, Panc1): 6.44 fold
Fold-change after TSA treatment ([1]; EREG, Panc1): −1.37 fold
Fold-change after TSA treatment ([1]; GADD45B, Panc1): −1.09 fold
Fold-change after TSA treatment ([1]; GAGE1, Panc1): 0.63 fold
Fold-change after TSA treatment ([1]; GAGE2, Panc1): 1.4 fold
Fold-change after TSA treatment ([1]; GAGE3, Panc1): 1.07 fold
Fold-change after TSA treatment ([1]; GAGE4, Panc1): 2.29 fold
Fold-change after TSA treatment ([1]; GAGE6, Panc1): 1.62 fold
Fold-change after TSA treatment ([1]; GAGE7B, Panc1): 3.56 fold
Fold-change after TSA treatment ([1]; HEP27, Panc1): 31.64 fold
Fold-change after TSA treatment ([1]; HMOX1, Panc1): 1.21 fold
Fold-change after TSA treatment ([1]; HPSE, Panc1): 3.03 fold
Fold-change after TSA treatment ([1]; ID2, Panc1): 21.22 fold
Fold-change after TSA treatment ([1]; ING1, Panc1): 1.5 fold
Fold-change after TSA treatment ([1]; KLK12, Panc1): 2.13 fold
Fold-change after TSA treatment ([1]; MAGE1, Panc1): 15.48 fold
Fold-change after TSA treatment ([1]; MBD1, Panc1): −1.82 fold
Fold-change after TSA treatment ([1]; MMP1, Panc1): −2.63 fold
Fold-change after TSA treatment ([1]; NGFR, Panc1): 30.7 fold
Fold-change after TSA treatment ([1]; NOTCH3, Panc1): 3.9 fold
Fold-change after TSA treatment ([1]; P-glycoprotein (mdr1), Panc1): 3.69 fold
transcripts with marked induction ([1]; Panc1): 459 transcripts
transcripts with marked induction, share of transcripts analyzed ([1]; Panc1 (printed Panel)): 2.5%
Fold-change after TSA treatment ([1]; SPANXA1, Panc1): 6.45 fold
Fold-change after TSA treatment ([1]; STC1, Panc1): 5.63 fold
Fold-change after TSA treatment ([1]; UCPH, Panc1): 2.05 fold
Fold-change after TSA treatment ([1]; ULBP2, Panc1): 18.25 fold
Fold-change after TSA treatment ([1]; WNT4, Panc1): 5.13 fold
Fold-change after TSA treatment ([1]; candidate tumor suppressor gene 21 protein (AF040708), Panc1): 1.01 fold
Fold-change after TSA treatment ([1]; connective tissue growth factor (M92934), Panc1): 7.69 fold
Fold-change after TSA treatment ([1]; hemoglobin, alpha 1 (HBAI), Panc1): 4.55 fold
Fold-change after TSA treatment ([1]; interleukin 8, Panc1): 3.01 fold
Fold-change after TSA treatment ([1]; member 2 (BC002649), Panc1): 5.04 fold
Fold-change after TSA treatment ([1]; period homolog 1 (PERI), Panc1): −3.83 fold
Fold-change after TSA treatment ([1]; prostate differentiation factor (AF003934), Panc1): 4.05 fold
Fold-change after TSA treatment ([1]; protease inhibitor 12 (neuroserpin) (SERPINU), Panc1): 11.7 fold
Fold-change after TSA treatment ([1]; synovial sarcoma, X breakpoint 1 (BC001003), Panc1): 2.73 fold
Fold-change after TSA treatment ([1]; tissue factor pathway inhibitor-2 (L27624), Panc1): 34.65 fold

Nc1ncn([C@H]2C[C@H](O)[C@@H](CO)O2)c(=O)n1 [5Aza-dC, 5 aza 2′ deoxycytidine]
Fold-change after 5Aza-dC treatment ([2]; ANGPT2, Hs766T): −0.44 fold
Fold-change after 5Aza-dC treatment ([2]; BARD1, Hs766T): 5.21 fold
Fold-change after 5Aza-dC treatment ([2]; BNIP3, Hs766T): −1.75 fold
Fold-change after 5Aza-dC treatment ([2]; BST2, Hs766T): 1.36 fold
Fold-change after 5Aza-dC treatment ([2]; CACNA1G, Hs766T): 0.5 fold
Fold-change after 5Aza-dC treatment ([2]; CCNE2, Hs766T): 5.28 fold
Fold-change after 5Aza-dC treatment ([2]; CDH3, Hs766T): 0.89 fold
Fold-change after 5Aza-dC treatment ([2]; CDKN1A (p21), Hs766T): 1.04 fold
Fold-change after 5Aza-dC treatment ([2]; CDKN1C, Hs766T): 5.42 fold
Fold-change after 5Aza-dC treatment ([2]; CLDN5, Hs766T): 1.21 fold
Fold-change after 5Aza-dC treatment ([2]; CSF1, Hs766T): 5.75 fold
Fold-change after 5Aza-dC treatment ([2]; DR3, Hs766T): −1.46 fold
Fold-change after 5Aza-dC treatment ([2]; FOXE1, Hs766T): 5.63 fold
Fold-change after 5Aza-dC treatment ([2]; GAGE1, Hs766T): 0.48 fold
Fold-change after 5Aza-dC treatment ([2]; GAGE3, Hs766T): −2.57 fold
Fold-change after 5Aza-dC treatment ([2]; GAGE4, Hs766T): −1.1 fold
Fold-change after 5Aza-dC treatment ([2]; GAGE6, Hs766T): 1.09 fold
Fold-change after 5Aza-dC treatment ([2]; GAGE7, Hs766T): −1.12 fold
Fold-change after 5Aza-dC treatment ([2]; HOXA1, Hs766T): −1.61 fold
transcripts with >5-fold increase, share of the 18462 transcripts analyzed ([2]; Hs766T): 0.9%
transcripts with substantial increase (>5-fold) in signal intensities ([2]; Hs766T, vs mock-treated): 167 transcripts
Fold-change after 5Aza-dC treatment ([2]; IGF2, Hs766T): −0.41 fold
Fold-change after 5Aza-dC treatment ([2]; IL1R1, Hs766T): −2.59 fold
Fold-change after 5Aza-dC treatment ([2]; ISG20, Hs766T): 1.02 fold
Fold-change after 5Aza-dC treatment ([2]; JPH3, Hs766T): 5.27 fold
Fold-change after 5Aza-dC treatment ([2]; KLK10, Hs766T): 1.16 fold
Fold-change after 5Aza-dC treatment ([2]; LDOC1, Hs766T): −1.86 fold
Fold-change after 5Aza-dC treatment ([2]; LHX1, Hs766T): 1.92 fold
Fold-change after 5Aza-dC treatment ([2]; MAGE1, Hs766T): 4.45 fold
Fold-change after 5Aza-dC treatment ([2]; MATN1, Hs766T): 6.83 fold
Fold-change after 5Aza-dC treatment ([2]; NEFH, Hs766T): −1.24 fold
Fold-change after 5Aza-dC treatment ([2]; NPTX2, Hs766T): −2.6 fold
Fold-change after 5Aza-dC treatment ([2]; PAX6, Hs766T): 1.36 fold
Fold-change after 5Aza-dC treatment ([2]; PDYN, Hs766T): 6.38 fold
Fold-change after 5Aza-dC treatment ([2]; PLAT, Hs766T): −1.73 fold
Fold-change after 5Aza-dC treatment ([2]; PLEK2, Hs766T): 1.12 fold
Fold-change after 5Aza-dC treatment ([2]; SARP2, Hs766T): 1.35 fold
Fold-change after 5Aza-dC treatment ([2]; SMARCA1, Hs766T): −0.79 fold
Fold-change after 5Aza-dC treatment ([2]; ST14, Hs766T): −4.72 fold
Fold-change after 5Aza-dC treatment ([2]; TIMP3, Hs766T): −3.67 fold
Fold-change after 5Aza-dC treatment ([2]; TJP2, Hs766T): −1.56 fold
Fold-change after 5Aza-dC treatment ([2]; TNF, Hs766T): −4.9 fold
Fold-change after 5Aza-dC treatment ([2]; UCHL1, Hs766T): 1.45 fold
Fold-change after 5Aza-dC treatment ([2]; WNT7A, Hs766T): 9.03 fold
Fold-change after 5Aza-dC treatment ([2]; XAGE-1, Hs766T): −0.5 fold
Fold-change after 5Aza-dC treatment ([2]; granulocytemacrophage colony-stimulating factor (M11734), Hs766T): 5.53 fold
Fold-change after 5Aza-dC treatment ([2]; interferon, alpha-inducible protein (NM_022873), Hs766T): −4.46 fold
Fold-change after 5Aza-dC treatment ([2]; p53-induced protein (PIGII), Hs766T): 1.04 fold
Fold-change after 5Aza-dC treatment ([2]; reprimo, Hs766T): 6.65 fold
Fold-change after 5Aza-dC treatment ([2]; stratifin (14-3-3 sigma), Hs766T): −1.64 fold
Fold-change after 5Aza-dC treatment ([2]; stromal antigen 3 (STAG5), Hs766T): 1.01 fold
Fold-change after 5Aza-dC treatment ([2]; testin, Hs766T): 1.6 fold
